# Reference: patent US4118561A, “7-(Substituted)-7H-pyrrolo[3,2-f]quinazoline-1,3-diamines” (priority 1977, dated 1978)
# Read-outs that look alike come from different tables or passages of the source.
# Columns and labels:
# [1] = test system: S. paratyphi 11737; assay: In vitro antibacterial activity (MIC), S. paratyphi 11737; assay type: cell-based; settings: Salmonella enterica, 18 h
# [2] = Antimalarial blood schizonticidal test in mice; assay type: in vivo, Plasmodium berghei (infected ICR/HA Swiss mice); set-up: ΔMST (increase in mean survival time): unit: days; settings: mouse, in vivo, sc, single dose, read-out: Highest Non-Lethal Dose
# Source text: (§1) In addition, the invention provides compounds which have antimalarial activity in vivo as evidenced by a standard blood schizonticidal test in mice infected with Plasmodium berghei KBG 173.
# (§2) Utilizing young ICR/HA Swiss mice and a standard inoculum of Plasmodium berghei KBG 173, it is possible to produce a uniform disease fatal to 100% of untreated animals within 6 to 8 days with a mean survival time of 6.2 days. Test animals weigh from 18 to 22 grams but weight variations in any given experimental or control group are confined to 2-3 grams. All animals in any given test are approximately of the same age. Animals on test are housed in metal-topped plastic cages, given a standard laboratory diet and water ad libitum.
# (§3) Test animals receive an intraperitoneal injection of 0.5 ml. of 1:100 dilution of heparinized heart's blood with a minimum of 90% parasitized cells (4 × 10^7 cells), drawn from donor mice infected one week earlier with Plasmodium berghei. The donor strain is maintained by weekly passages in separate groups of mice inoculated with a 0.5 ml. of 1:500 dilution of heparinized heart's blood.
# (§4) Test compounds are administered after dissolution or suspension in peanut oil. A single dose is given subcutaneously 72 hours after the mice are infected with Plasmodium berghei. At this time a 10-15 percent parasitemia has developed; the disease is well established but has not produced sufficient debility to alter the response of the host to toxic effects of the drug on test. Since treatment is withheld for three days to permit the infection to become well established and death occurs in untreated controls within 6-8 days, it is felt that this system presents a candidate compound with the maximum challenge. In order to check factors such as changes in the infectivity of Plasmodium berghei or in the susceptibility of the host or to detect technical errors, a group of infected animals treated with pyrimethamine at dose levels producing definite increases in survival time is included in a positive control in every experiment.
# (§5) In each experiment test compounds are administered in graded dosages. […] However, if an active drug is toxic for the host, its toxicity may become a limiting factor; continued increases in dose levels also increase the toxic effects and may result in the diminution of survival times. Deaths prior to the sixth day, when untreated controls begin to die, are regarded as nonparasitic and become the basis for toxicity evaluations. […] In calculating mean survival time, toxic deaths and 60-day survivors are not included.
# (§6) Compounds are considered active which produce a cure in at least one test animal or which produce significant increases in mean survival times of the treated animals as compared with the mean survival times of untreated controls, provided that no drug related deaths (toxicity) are noted at the active dose.
# [3] = test system: Plasmodium berghei KBG 173; assay: Antimalarial blood schizonticidal test in mice; assay type: in vivo, Plasmodium berghei (infected ICR/HA Swiss mice); set-up: ΔMST (increase in mean survival time): unit: days; settings: s.c.; for ED100 / minimal effective dose: Plasmodium berghei, sc, single dose; for ED100: read-out: Lowest Dose Curing All Mice; for minimal effective dose: read-out: Min. Curing Dose; for Cure/Treat at Min. Curing Dose: at the Min. Curing Dose
# Source text: as §1, §2, §3, §4, §5, §6
# [4] = test system: E. coli 9637; assay: In vitro antibacterial activity (MIC), E. coli 9637; settings: Escherichia coli, 9637, 18 h
# [5] = test system: S. aureus Smith; assay: In vitro antibacterial activity (MIC), S. aureus Smith; settings: Staphylococcus aureus, 18 h
# [6] = test system: S. aureus 53-180; assay: In vitro antibacterial activity (MIC), S. aureus 53-180; settings: Staphylococcus aureus, 53180, 18 h
# [7] = test system: P. vulgaris 6896; assay: In vitro antibacterial activity (MIC), P. vulgaris 6896; settings: Proteus vulgaris, 6896, 18 h
# [8] = test system: N. catarrhalis 8193; assay: In vitro antibacterial activity (MIC), N. catarrhalis 8193; settings: 18 h
# [9] = test system: K. pneumoniae 10031; assay: In vitro antibacterial activity (MIC), K. pneumoniae 10031; settings: Klebsiella pneumoniae, 10031, 18 h
# [10] = infected mice, highest dose with no deaths for any reason
# [11] = 336 h, alive on day 14 considered cured, no 60-day data
# [12] = alive on day 14 considered cured
Compound,MIC [1] [µg/mL],"MTD [2, 10] [mg/kg]","ED100 ([3]; 1440 h, 60-day survivors) [mg/kg]","minimal effective dose ([3]; 1440 h, 60-day survivors) [mg/kg]",Cure/Treat at Min. Curing Dose ([3]; 60-day survivors),MIC [4] [µg/mL],MIC [5] [µg/mL],MIC [6] [µg/mL],MIC [7] [µg/mL],MIC [8] [µg/mL],MIC [9] [µg/mL],also measured
Nc1nc(N)c2c(ccc3c2ccn3Cc2ccccc2F)n1 [Example 3],0.976,80,80,10,3/5,0.488,0.488,0.244,0.976,0.0152,0.122,ΔMST (increase in mean survival time) ([3]; dose 5 mg. per kg.): 9.8
Nc1nc(N)c2c(ccc3c2ccn3Cc2cccc(F)c2)n1 [Example 4],0.488,40,40,10,1/5,0.244,0.244,0.031,0.488,< 0.0009,0.061,ΔMST (increase in mean survival time) ([3]; dose 10 mg. per kg.): 8.3
Nc1nc(N)c2c(ccc3c2ccn3Cc2ccccc2Cl)n1 [Example 6],1.95,160,20,20,5/5,0.976,0.976,0.976,7.81,0.061,0.976,ΔMST (increase in mean survival time) ([3]; dose 5 mg. per kg.): 8.3
Nc1nc(N)c2c(ccc3c2ccn3Cc2cccc(Cl)c2)n1 [Example 7],31.3,160,10,2.5,2/5,7.81,1.95,0.976,31.3,0.244,0.976,ΔMST (increase in mean survival time) ([3]; dose 1.25 mg. per kg.): 7.7
Nc1nc(N)c2c(ccc3c2ccn3Cc2ccc(Cl)cc2)n1 [Example 8],0.976,40,20,10,2/5,0.976,0.976,0.244,0.976,0.0038,0.122,ΔMST (increase in mean survival time) ([3]; dose 5 mg. per kg.): 8.1
Nc1nc(N)c2c(ccc3c2ccn3Cc2c(Cl)cccc2Cl)n1 [Example 9],> 250,–,–,–,–,> 250,250,250,> 250,0.488,15.6,"MTD ([2]; alive on day 14 considered cured, no 60-day data): 160 mg/kg; ED100 [3, 11]: 40 mg/kg; minimal effective dose [3, 11]: 5 mg/kg; Cure/Treat at Min. Curing Dose [3, 12]: 1/5"
Nc1nc(N)c2c(ccc3c2ccn3Cc2ccc(Cl)c(Cl)c2)n1 [Example 10],31.3,40,10,2.5,2/5,3.9,0.976,0.488,31.3,0.061,0.488,ΔMST (increase in mean survival time) ([3]; dose 2.5 mg. per kg.): 10.2
Nc1nc(N)c2c(ccc3c2ccn3Cc2cccc(C(F)(F)F)c2)n1 [Example 12],7.81,–,–,5,1/5,0.976,0.488,0.244,62.5,0.122,0.488,ΔMST (increase in mean survival time) ([3]; dose 2.5 mg. per kg.): 7.5
Cc1ccccc1Cn1ccc2c3c(N)nc(N)nc3ccc21 [Example 19],3.9,–,–,40,3/5,0.976,0.488,0.488,7.81,0.0152,0.122,ΔMST (increase in mean survival time) ([3]; dose 40 mg. per kg.): 8.4
Nc1nc(N)c2c(ccc3c2ccn3Cc2ccc3c(c2)OCO3)n1 [Example 38],15.6,–,–,10,2/5,7.81,7.81,1.95,31.3,0.244,1.95,ΔMST (increase in mean survival time) ([3]; dose 2.5 mg. per kg.): 12.2
Nc1nc(N)c2c(ccc3c2ccn3CC2CCCCC2)n1 [Example 54],7.81,–,–,–,–,1.95,7.81,3.9,3.9,0.0152,0.488,ΔMST (increase in mean survival time) ([3]; dose 40 mg. per kg.): 8.5
CC(C)=CCn1ccc2c3c(N)nc(N)nc3ccc21 [Example 55],7.81,–,–,640,3/5,3.9,1.95,0.976,7.81,0.0038,0.488,ΔMST (increase in mean survival time) ([3]; dose 320 mg. per kg.): 9.3
"CC(C)CCn1ccc2c3c(N)nc(N)nc3ccc21 [Example 66, 7-(3-Methylbutyl)-7H-pyrrolo[3,2-f]quinazoline-1,3-diamine]",3.9,–,–,–,–,0.976,1.95,0.976,3.9,0.0038,0.244,ΔMST (increase in mean survival time) ([3]; dose 320 mg. per kg.): 8.1
CC(=O)c1ccccc1-n1ccc2c3c(N)nc(N)nc3ccc21 [Example 70],0.488,–,–,40,1/5,0.244,0.061,0.031,0.976,0.0076,0.0152,ΔMST (increase in mean survival time) ([3]; dose 40 mg. per kg.): 9.2
CC(=O)c1ccc(-n2ccc3c4c(N)nc(N)nc4ccc32)cc1 [Example 71],7.81,–,–,40,1/5,0.976,1.95,0.488,15.6,0.031,0.122,ΔMST (increase in mean survival time) ([3]; dose 20 mg. per kg.): 8.8
Nc1nc(N)c2c(ccc3c2ccn3-c2ccccc2[N+](=O)[O-])n1 [Example 76],1.95,–,–,40,4/5,0.976,0.244,0.244,3.9,0.031,0.244,–
Nc1nc(N)c2c(ccc3c2ccn3-c2ccc([N+](=O)[O-])cn2)n1 [Example 82],> 250,–,–,–,–,> 250,0.976,3.9,> 250,0.031,31.3,"minimal effective dose [3, 11]: 160 mg/kg; Cure/Treat at Min. Curing Dose [3, 12]: 1/5"
"Cc1cc2c(ccc3nc(N)nc(N)c32)[nH]1 [Example 98, 8-Methyl-7H-pyrrolo[3,2-f]quinazoline-1,3-diamine]",15.6,–,–,160,3/5,3.9,31.3,31.3,15.6,1.95,3.9,ΔMST (increase in mean survival time) ([3]; dose 160 mg. per kg.): 13.9
